Consider 28 compounds from the supplement of paper PMC12317010.

The data set is described as follows: collision cross section in nitrogen (drift tube, single-field); higher = larger gas-phase ion size.
The mark [1] stands for this setting: ion type: [M+Na], ion source: ESI, ion mode: Positive.
Where [2] appears, read: ion type: [M-H], ion source: ESI, ion mode: Negative.
The mark [3] stands for this setting: ion type: [M+H], ion source: APCI, ion mode: Positive.
[4] abbreviates: ion type: [M+H], ion source: ESI, ion mode: Positive.

Structures can show the parent of a compound that is named as a salt.
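Further: chemical standards at 10 µM analysed by drift tube IMS-QTOF MS in about 3.95 torr nitrogen, mean of duplicate injections differing ≤1%, mass error below 10 ppm.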

Turning to `CN(C1CCCCC1)S(=O)(=O)c1ccccc1N` [2-Amino-N-cyclohexyl-N-methylbenzenesulfonamide], the “collision cross section in nitrogen” value under setting [1] was 173.9 Å².
With `Nc1ccc2c(c1)C(=O)c1ccccc1C2=O` [2-Aminoanthraquinone], the “collision cross section in nitrogen” value under setting [2] is listed as 144.9 Å².
As to `Nc1cc(S(=O)(=O)O)ccc1S(=O)(=O)O` [2-Aminobenzene-1,4-disulfonic acid], the “collision cross section in nitrogen” value under setting [2] came out at 147.3 Å².
For `Nc1nc2ccccc2[nH]1` [2-Aminobenzimidazole], the “collision cross section in nitrogen” value reads like this: under setting [3], 126.2 Å²; under setting [4], 126.8 Å²; (ion type: [M+], ion source: APCI, ion mode: Positive) 123.9 Å²; under setting [2], 123.5 Å².
`N#Cc1ccccc1N` [2-Aminobenzonitrile]: under setting [2], the “collision cross section in nitrogen” value came to 118 Å².
Regarding `NCCOS(=O)(=O)O` [2-Aminoethyl hydrogen sulfate], the “collision cross section in nitrogen” value under setting [2] amounted to 121.6 Å².
For the compound `Oc1ccccc1Br` [2-Bromophenol], the “collision cross section in nitrogen” value under setting [2] amounted to 120.2 Å².
In the case of `CCCCCCCCOC(=O)/C=C\C(=O)OCCCCCCCC` [2-Butenedioic acid (2Z)-, dioctyl ester], the “collision cross section in nitrogen” value under setting [1] is listed as 206.4 Å².
`Nc1ccc(N)c(Cl)c1` [2-Chloro-1,4-diaminobenzene sulfate (1:1)]: under setting [4], the “collision cross section in nitrogen” value is on record as 131.4 Å².
With `Nc1ccc([N+](=O)[O-])cc1Cl` [2-Chloro-4-nitroaniline], the “collision cross section in nitrogen” value under setting [2] was found to be 126.1 Å².
As to `O=C(Nc1ccccc1)c1cc([N+](=O)[O-])ccc1Cl` [2-Chloro-5-nitro-N-phenylbenzamide], the “collision cross section in nitrogen” value under setting [2] stood at 159.9 Å².
Same read-out and setting: to `Nc1cc([N+](=O)[O-])ccc1Cl` [2-Chloro-5-nitroaniline] belongs 125.5 Å²; to `Cc1cc(Br)ccc1NC(=O)CCl` [2-Chloro-N-(2-methyl-4-bromophenyl)acetamide], 146 Å².
Consider `NS(=O)(=O)c1ccccc1Cl` [2-Chlorobenzenesulfonamide], for which the “collision cross section in nitrogen” value under setting [2] is reported as 133.5 Å².
In the case of `CCC(C)(CC)C(=O)O` [2-Ethyl-2-methylbutyric acid], the “collision cross section in nitrogen” value under setting [2] is given as 130.5 Å².
Take `CCc1nc(C)c[nH]1` [2-Ethyl-4-methyl-1H-imidazole]: the “collision cross section in nitrogen” value by setting is: under setting [3], 120.3 Å²; under setting [4], 121.2 Å².
Consider `CCC(CC)C(=O)O` [2-Ethylbutyric acid], for which, under setting [2], the “collision cross section in nitrogen” value is given as 127.6 Å².
For `CCCCC(CC)C(=O)O` (stereo not drawn) [2-Ethylhexanoic acid], the “collision cross section in nitrogen” value under setting [2] amounted to 138.1 Å².
In the case of `CCCCC(CC)COP(=O)(O)O` (stereo not drawn) [2-Ethylhexyl dihydrogen phosphate], under setting [2], the “collision cross section in nitrogen” value is 150.7 Å².
Consider `CCCCC(CC)COP(=O)(Oc1ccccc1)Oc1ccccc1` (stereo not drawn) [2-Ethylhexyl diphenyl phosphate], for which, under setting [1], the “collision cross section in nitrogen” value turned out to be 200.9 Å².
Take `CCCCC(CC)COC(=O)c1ccc(O)cc1` (stereo not drawn) [2-Ethylhexyl p-hydroxybenzoate]: the “collision cross section in nitrogen” value under setting [2] stood at 169.9 Å².
Still for that read-out and setting: the figure for `CCc1ccccc1O` [2-Ethylphenol] is 124.3 Å²; for `CCCCCCCCC(CCCCCC)C(=O)O` (stereo not drawn) [2-Hexyldecanoic acid] it is 176.7 Å².
As to `NNc1nc(-c2ccc(N)cc2)cs1` [2-Hydrazino-4-(4-aminophenyl) thiazole], the “collision cross section in nitrogen” value under setting [4] is recorded as 146.2 Å².
With `NNc1nc(-c2ccc([N+](=O)[O-])cc2)cs1` [2-Hydrazino-4-(4-nitrophenyl)thiazole], under setting [2], the “collision cross section in nitrogen” value is recorded as 149 Å².
Turning to `COc1ccc(C(=O)c2ccccc2)c(O)c1` [2-Hydroxy-4-methoxybenzophenone], the “collision cross section in nitrogen” value reads like this: under setting [3], 147.3 Å²; under setting [2], 152.9 Å².
In the case of `CC(=O)Nc1ccccc1O` [2-Hydroxyacetanilide], the “collision cross section in nitrogen” value under setting [2] came to 130.2 Å².
The same measure, in the same setting: the figure for `O=C(c1ccccc1)c1ccccc1O` [2-Hydroxybenzophenone] is 143.4 Å².
